A short description of data set [1]: Agonist activity at human-mouse chimeric GPR119 expressed in tetracycline-induced Flp-In-T-Rex-HEK293 cells assessed as accumulation of cAMP after 50 mins by HTRF assay. It counts as cell-based. As to conditions: HEK293, 50 min.
Data set [2] is described as follows: Half life in human liver microsomes at 50 uM preincubated for 5 mins followed by NADPH addition by LC/MS-MS analysis. The data set is classed as ADME. In general terms: Microsomes from liver hold many membrane-bound enzymes, among them those of drug oxidation.
In data set [3] the test system is Mus musculus. Briefly: Antidiabetic activity in C57BL/6J mouse assessed as reduction in plasma glucose level at 0.03 mg/kg, po administered for 60 mins followed by glucose challenge measured for 30 to 120 mins by OGTT relative to vehicle-treated control. It counts as functional. Details: scale not given: the % may be the effect or the level left.
Data set [4] deals with Mus musculus. As to the kind of experiment: Antidiabetic activity in C57BL/6J mouse assessed as reduction in plasma glucose level at 0.1 mg/kg, po administered for 60 mins followed by glucose challenge measured for 30 to 120 mins by OGTT relative to vehicle-treated control. The data set is classed as functional. Set-up: scale not given: the % may be the effect or the level left.

`CCCc1cnc(N2CCC(Oc3cc(=O)n(-c4ccc(N5CCC(O)C5=O)c(C)n4)cc3Cl)CC2)nc1` (configuration not stated): the EC50 (as a rule, the midpoint of the concentration-response curve) in data set [1] is 4 nM. The half-life (commonly the time in which the quantity being followed falls by half) at 50 µM in data set [2] is 2 h. For the same compound, the Activity with Mus musculus [3] was 19%.
As to `CCCc1cnc(N2CCC(Oc3ccn(-c4ccc(N5CCC(O)C5=O)c(C)n4)c(=O)c3)CC2)nc1` (configuration not stated), in data set [1], the EC50 is 16 nM. In data set [2], this compound displayed a half-life at 50 µM of 1.27 h. Moreover, the Activity in the data set on Mus musculus [4] is on record as 21%.
For the compound `Cc1nc(-n2cc(Cl)c(OC3CCN(c4ncc(Cl)cn4)CC3)cc2=O)ccc1N1CC[C@@H](O)C1=O`, in data set [1], the EC50 was determined as 3 nM. The same compound showed a half-life at 50 µM in data set [2] of 1.62 h. Further, the Activity in the data set on Mus musculus [3] is given as 39%.
The matching figures for `Cc1nc(-n2cc(Cl)c(OC3CCN(c4ncc(Cl)cn4)CC3)cc2=O)ccc1N1CCC(O)C1=O` (configuration not stated): 2 nM, 1.57 h and 36%.
For the compound `Cc1nc(-n2ccc(OC3CCN(c4ncc(Cl)cn4)CC3)cc2=O)ccc1N1CCC(O)C1=O` (configuration not stated), the EC50 in data set [1] stood at 10 nM. The same compound displayed a half-life at 50 µM in data set [2] of 1.68 h.
For the compound `Cc1nc(-n2cc(Cl)c(OC3CCN(c4ncc(Cl)cn4)CC3)cc2=O)ccc1N1CC[C@H](O)C1=O`, the EC50 in data set [1] came out at 4 nM. Also, in data set [2], the half-life at 50 µM came out at 1.3 h. The Activity with Mus musculus [3] is recorded as 26%.

The record behind these values is ChEMBL document CHEMBL3286211, “Pyrimidinylpiperdinyloxypyridone Analogues as GPR119 Modulators” (ACS Med Chem Lett, 2014).
